Literature values in patent US20210059959A1, “USE OF CANNABINOIDS IN THE TREATMENT OF MENTAL DISORDERS” (GW Pharma Limited, priority 2015, published 2021).

Test system: positive or negative symptoms of schizophrenia
Settings: placebo-controlled clinical trial; cited from earlier work

## Cc1c(C(=O)NN2CCCCC2)nn(-c2ccc(Cl)cc2Cl)c1-c1ccc(Cl)cc1 [rimonabant]
  Effect on positive or negative symptoms of schizophrenia: no effect
